Measurements taken from ChEMBL document CHEMBL4261568, “Pyrimidine Nucleotides Containing a (S)-Methanocarba Ring as P2Y6 Receptor Agonists” (Medchemcomm, 2017).
One block for each molecule: values may come before it. The source made the active and inactive calls. The calls are words filed in the database; no cut-off is given here.

Tests used:
P2Y purinoceptor 6 = P2Y purinoceptor 6 (Homo sapiens, UniProt Q15077); experiment: Agonist activity at human P2Y6 receptor expressed in human 1321N1 cells assessed as induction of calcium mobilization by FLIPR method; type: functional, cell-based
P2Y purinoceptor 6, sequence (Q15077 whole entry): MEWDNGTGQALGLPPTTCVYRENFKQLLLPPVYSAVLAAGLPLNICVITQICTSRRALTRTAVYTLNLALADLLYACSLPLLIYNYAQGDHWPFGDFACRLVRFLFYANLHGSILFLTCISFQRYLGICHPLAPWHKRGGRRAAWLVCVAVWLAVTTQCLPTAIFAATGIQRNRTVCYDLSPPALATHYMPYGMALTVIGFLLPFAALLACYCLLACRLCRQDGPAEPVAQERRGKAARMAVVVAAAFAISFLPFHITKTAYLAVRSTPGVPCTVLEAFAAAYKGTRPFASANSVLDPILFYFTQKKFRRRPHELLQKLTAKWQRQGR

[1] = Half life in human 1321N1 cell membranes; type: ADME, cell-based
[2] = target: P2Y purinoceptor 1 (Homo sapiens) (UniProt P47900); experiment: Agonist activity at human P2Y1 receptor expressed in human 1321N1 cells assessed as induction of calcium mobilization at 10 uM measured over 2 mins by Fluo-4 dye-based FLIPR method relative to control; type: functional, cell-based
P2Y purinoceptor 1 (Homo sapiens), sequence (P47900 whole entry): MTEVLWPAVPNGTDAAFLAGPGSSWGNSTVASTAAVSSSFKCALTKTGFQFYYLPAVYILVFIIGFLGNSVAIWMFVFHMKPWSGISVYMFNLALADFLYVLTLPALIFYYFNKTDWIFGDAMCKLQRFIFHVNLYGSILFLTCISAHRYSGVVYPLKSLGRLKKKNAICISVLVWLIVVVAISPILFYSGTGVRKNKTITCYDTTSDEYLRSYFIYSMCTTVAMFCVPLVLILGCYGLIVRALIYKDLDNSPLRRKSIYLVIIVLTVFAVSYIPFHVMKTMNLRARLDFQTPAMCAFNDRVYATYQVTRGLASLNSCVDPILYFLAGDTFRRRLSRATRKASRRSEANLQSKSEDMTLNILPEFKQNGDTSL

[3] = target: P2Y purinoceptor 2 (Homo sapiens) (UniProt P41231); experiment: Agonist activity at human P2Y2 receptor expressed in human 1321N1 cells assessed as induction of calcium mobilization at 10 uM measured over 2 mins by Fluo-4 dye-based FLIPR method relative to control; type: functional, cell-based
P2Y purinoceptor 2 (Homo sapiens), sequence (P41231 whole entry): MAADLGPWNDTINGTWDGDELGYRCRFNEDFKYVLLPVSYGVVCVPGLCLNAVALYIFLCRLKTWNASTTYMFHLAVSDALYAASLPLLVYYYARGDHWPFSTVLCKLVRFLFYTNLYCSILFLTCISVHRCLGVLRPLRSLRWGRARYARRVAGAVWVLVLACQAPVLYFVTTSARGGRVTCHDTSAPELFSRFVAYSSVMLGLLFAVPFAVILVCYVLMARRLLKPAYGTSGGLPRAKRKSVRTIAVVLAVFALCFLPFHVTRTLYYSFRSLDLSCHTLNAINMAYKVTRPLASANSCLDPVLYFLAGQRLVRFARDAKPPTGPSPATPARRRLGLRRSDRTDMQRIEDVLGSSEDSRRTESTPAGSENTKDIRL

[4] = target: P2Y purinoceptor 4 (Homo sapiens) (UniProt P51582); experiment: Agonist activity at human P2Y4 receptor expressed in human 1321N1 cells assessed as induction of calcium mobilization at 10 uM measured over 2 mins by Fluo-4 dye-based FLIPR method relative to control; type: functional, cell-based
P2Y purinoceptor 4 (Homo sapiens), sequence (P51582 whole entry): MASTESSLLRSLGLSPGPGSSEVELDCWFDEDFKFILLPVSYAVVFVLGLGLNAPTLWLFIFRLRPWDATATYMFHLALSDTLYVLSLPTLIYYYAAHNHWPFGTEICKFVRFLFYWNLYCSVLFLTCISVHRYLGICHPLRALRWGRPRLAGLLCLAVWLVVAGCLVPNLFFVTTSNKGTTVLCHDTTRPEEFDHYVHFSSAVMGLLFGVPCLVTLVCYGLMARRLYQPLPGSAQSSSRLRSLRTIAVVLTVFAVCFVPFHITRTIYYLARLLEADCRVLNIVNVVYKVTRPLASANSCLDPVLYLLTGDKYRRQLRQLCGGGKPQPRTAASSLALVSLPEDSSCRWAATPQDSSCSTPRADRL

[5] = target: T1, P2Y purinoceptor 11 (Homo sapiens) (UniProt Q96G91); experiment: Antagonist activity at human P2Y11 receptor expressed in human 1321N1 cells assessed as inhibition of calcium mobilization at 10 uM measured over 2 mins by Fluo-4 dye-based FLIPR method relative to control; type: functional, cell-based
T1 sequence (whole entry): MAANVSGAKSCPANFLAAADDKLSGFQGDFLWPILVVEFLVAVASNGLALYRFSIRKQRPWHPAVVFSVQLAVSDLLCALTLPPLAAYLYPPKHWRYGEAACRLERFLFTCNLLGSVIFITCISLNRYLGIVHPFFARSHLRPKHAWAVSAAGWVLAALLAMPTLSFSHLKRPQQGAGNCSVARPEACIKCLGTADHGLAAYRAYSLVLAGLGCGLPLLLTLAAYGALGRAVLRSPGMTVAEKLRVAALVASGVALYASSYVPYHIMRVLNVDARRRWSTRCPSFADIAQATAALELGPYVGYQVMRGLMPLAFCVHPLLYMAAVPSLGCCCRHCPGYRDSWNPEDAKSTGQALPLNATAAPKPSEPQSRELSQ

[6] = target: P2Y purinoceptor 1 (Homo sapiens) (UniProt P47900); experiment: Antagonist activity at human P2Y1 receptor expressed in human 1321N1 cells assessed as inhibition of calcium mobilization at 10 uM measured over 2 mins by Fluo-4 dye-based FLIPR method relative to control; type: functional, cell-based
[7] = target: P2Y purinoceptor 2 (Homo sapiens) (UniProt P41231); experiment: Antagonist activity at human P2Y2 receptor expressed in human 1321N1 cells assessed as inhibition of calcium mobilization at 10 uM measured over 2 mins by Fluo-4 dye-based FLIPR method relative to control; type: functional, cell-based
[8] = target: P2Y purinoceptor 4 (Homo sapiens) (UniProt P51582); experiment: Antagonist activity at human P2Y4 receptor expressed in human 1321N1 cells assessed as inhibition of calcium mobilization at 10 uM measured over 2 mins by Fluo-4 dye-based FLIPR method relative to control; type: functional, cell-based
[9] = target: T2, P2Y purinoceptor 14 (Homo sapiens) (UniProt Q15391); experiment: Agonist activity at human P2Y14 receptor expressed in human 1321N1 cells assessed as induction of calcium mobilization at 10 uM measured over 2 mins by Fluo-4 dye-based FLIPR method relative to control; type: functional, cell-based
T2 sequence (whole entry): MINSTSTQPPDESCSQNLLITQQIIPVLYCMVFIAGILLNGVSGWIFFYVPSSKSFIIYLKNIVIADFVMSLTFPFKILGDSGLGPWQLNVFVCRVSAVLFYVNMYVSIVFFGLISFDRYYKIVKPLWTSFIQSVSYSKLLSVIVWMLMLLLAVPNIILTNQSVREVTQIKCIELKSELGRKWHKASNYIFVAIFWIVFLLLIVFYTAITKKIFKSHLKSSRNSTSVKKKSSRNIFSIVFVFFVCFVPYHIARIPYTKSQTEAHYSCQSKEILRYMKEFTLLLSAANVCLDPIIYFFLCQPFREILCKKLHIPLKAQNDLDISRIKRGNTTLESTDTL

EC50 (P2Y purinoceptor 6): 2360 nM
SMILES: O=c1[nH]/c(=N\OCc2ccccc2)ccn1[C@@H]1O[C@H](COP(=O)(O)CP(=O)(O)O)[C@@H](O)[C@H]1O

half-life [1]: 55 min
SMILES: CO/N=c1/ccn([C@@H]2O[C@H](COP(=O)(O)OP(=O)(O)O)[C@@H](O)[C@H]2O)c(=O)[nH]1

EC50 (P2Y purinoceptor 6): 49.1 nM
SMILES: O=c1[nH]c(=O)n([C@@H]2O[C@H](COP(=O)(O)OP(=O)(O)O)[C@@H](O)[C@H]2O)cc1I

EC50 (P2Y purinoceptor 6): 705 nM
SMILES: CO/N=c1/ccn([C@]23C[C@H]2[C@H](COP(=O)(O)OP(=O)(O)OP(=O)(O)OC[C@@]24C[C@@H]2[C@@H](n2ccc(=O)[nH]c2=O)[C@H](O)[C@@H]4O)[C@@H](O)[C@H]3O)c(=O)[nH]1

EC50 (P2Y purinoceptor 6): 420 nM
SMILES: CO/N=c1/ccn([C@@H]2O[C@H](COP(=O)(O)CP(=O)(O)O)[C@@H](O)[C@H]2O)c(=O)[nH]1

EC50 (P2Y purinoceptor 6): 440 nM
SMILES: O=c1[nH]c(=O)n([C@]23C[C@H]2[C@H](COP(=O)(O)OP(=O)(O)O)[C@@H](O)[C@H]3O)cc1I

EC50 (P2Y purinoceptor 6): 5490 nM
SMILES: CO/N=c1/ccn([C@]23C[C@H]2[C@H](COP(=O)(O)OP(=O)(O)OP(=O)(O)OC[C@@H]2[C@@H](O)[C@@H](O)[C@@]4(n5cc/c(=N/OC)[nH]c5=O)C[C@@H]24)[C@@H](O)[C@H]3O)c(=O)[nH]1

EC50 (P2Y purinoceptor 6): 793 nM
SMILES: O=c1[nH]/c(=N\OCc2ccccc2)ccn1[C@]12C[C@H]1[C@H](COP(=O)(O)OP(=O)(O)O)[C@@H](O)[C@H]2O

EC50 (P2Y purinoceptor 6): 1200 nM
half-life [1]: 23 min
SMILES: CCN(CC)CC.CCN(CC)CC.CO/N=c1/ccn([C@@H]2O[C@H](COP(=O)(O)OP(=O)(O)OP(=O)(O)OC[C@H]3O[C@@H](n4ccc(=O)[nH]c4=O)[C@H](O)[C@@H]3O)[C@@H](O)[C@H]2O)c(=O)[nH]1

EC50 (P2Y purinoceptor 6): 4960 nM
SMILES: O=c1[nH]/c(=N\OCc2ccccc2)ccn1[C@]12C[C@H]1[C@H](COP(=O)(O)CP(=O)(O)O)[C@@H](O)[C@H]2O

EC50 (P2Y purinoceptor 6): 132 nM
SMILES: O=c1ccn([C@@H]2O[C@H](COP(=O)(O)OP(=O)(O)O)[C@@H](O)[C@H]2O)c(=O)[nH]1

EC50 (P2Y purinoceptor 6): 4120 nM
%max [2]: -0.6%
%max [3]: 16%
%max [4]: 10.2%
Imax [5]: 0.1%
Imax [6]: 56.8%
Imax [7]: 40.3%
Imax [8]: 25%
SMILES: CO/N=c1/ccn([C@]23C[C@H]2[C@H](COP(=O)(O)OP(=O)(O)OP(=O)(O)OC[C@H]2O[C@@H](n4ccc(=O)[nH]c4=O)[C@H](O)[C@@H]2O)[C@@H](O)[C@H]3O)c(=O)[nH]1

EC50 (P2Y purinoceptor 6): 6290 nM
SMILES: CO/N=c1/ccn([C@]23C[C@H]2[C@H](COP(=O)(O)CP(=O)(O)O)[C@@H](O)[C@H]3O)c(=O)[nH]1

EC50 (P2Y purinoceptor 6): 438 nM
Activity [9]: inactive
SMILES: O=c1ccn([C@]23C[C@H]2[C@H](COP(=O)(O)OP(=O)(O)O)[C@@H](O)[C@H]3O)c(=O)[nH]1

EC50 (P2Y purinoceptor 6): 47100 nM
SMILES: O=c1ccn([C@]23C[C@H]2[C@H](COP(=O)(O)CP(=O)(O)O)[C@@H](O)[C@H]3O)c(=O)[nH]1

EC50 (P2Y purinoceptor 6): 493 nM
%max [2]: -0.5%
%max [3]: 8.9%
%max [4]: 2.2%
Imax [5]: -3.9%
Imax [6]: 17%
Imax [7]: 16.8%
Imax [8]: 10%
SMILES: CO/N=c1/ccn([C@]23C[C@H]2[C@H](COP(=O)(O)OP(=O)(O)O)[C@@H](O)[C@H]3O)c(=O)[nH]1

EC50 (P2Y purinoceptor 6): 6900 nM
SMILES: CO/N=c1/ccn([C@]23C[C@H]2[C@H](COP(=O)(O)OP(=O)(O)OP(=O)(O)OC[C@@H]2[C@@H](O)[C@@H](O)[C@@]4(n5ccc(=O)[nH]c5=O)C[C@@H]24)[C@@H](O)[C@H]3O)c(=O)[nH]1
